Test results from US8808721B2, “Bed bug attractants and methods for trapping bed bugs” (SpringStar Inc., priority 2011, dated 2014).

Experiments:
[1] = test system: bed bugs; test: ST traps, adding skatole to carbon dioxide bait (Example 10); set-up: species or system Cimex lectularius; conditions: in vivo
From the text: Four ST traps from Example 3, baited with CF1, were paired with four ST traps baited with CF1S. Traps were placed in each of four corners of the location in Example 3. Traps were retrieved after one night. […] Additionally, all CF1 traps caught at least 2 bed bugs whereas half of the CF1S traps caught no bed bugs.

[2] = test system: bed bugs; test: ST traps, kairomone components (Example 9); type: in vivo, Cimex lectularius; conditions: combined with CO2 and heat, Location 4
Procedure: The kairomone composition of A1 was split into it components by chemical class, to determine if all components were necessary. Three new kairomone blends were tested (Table 3, Example 4). Blend A2 contained only skatole and androstenone (male boar compounds), and the adjuvants. Blend A3 contained all the ingredients from A1, but in slightly different ratios. Blend A4 contained only the fatty acid components and adjuvants. Four treatments were tested as follows: T0=CF1S+HW;T1=CF1+HW+A3;T2=CF1+HW+A2;T3=CF1+HW+A4
For treatment T0, the CO2 blend was made without skatole (CF1S, Table 1, Example 1). All treatments were tested using ST traps assembled as in Example 4.
A new location was used for testing kairomone components. Location 4 was an inhabited, 2-bedroom duplex in the suburbs of Seattle. Vacuum sampling estimated bed bug populations in each room at between 2,000 and 10,000 insects, which is considered heavily infested. Two people slept in the bedrooms on cots raised 50 cm off the carpet, which were then isolated from bed bugs in harborages by placing under each bed leg a plastic 16 oz drinking cup filled with propylene glycol or white pepper powder. […]

| Compound | effect of adding to the fermentative mixture on trap attractiveness [1] | attractiveness of kairomone blend or component to bed bugs [2] |
| --- | --- | --- |
| Cc1c[nH]c2ccccc12 [skatole, 3-methyl indole] | increased trap attractiveness to bed bugs |  |
| C[C@]12CCC(=O)C[C@@H]1CC[C@@H]1[C@@H]2CC[C@]2(C)C=CC[C@@H]12 [androstenone] |  | acted synergistically with the fatty acid compounds to attract bed bugs |
